Results taken from article PMC9780499, “Designing double-site lipidated peptide amphiphiles as potent antimicrobial biomaterials to combat multidrug-resistant bacteria” (Frontiers in Microbiology, 2022).
Peptide text beside a SMILES is read from it. * marks the point of attachment. Octanoyl = CCCCCCCC(=O)*; Hexanoyl = CCCCCC(=O)*

Key:
9 bacterial strains = test: Geometric mean MIC over the 9 bacterial strains; assay type: cell-based; conditions: geometric mean of the 9 strains of Table 1
Protocol: (§1) The MICs were determined using a broth microdilution method with reference to Clinical and Laboratory Standards Institute (CLSI) guidelines ([Wiegand et al., 2008]). After a two-fold serial dilution of the peptides (50 μl, dilution buffer: 0.01% acetic acid containing 0.2% BSA) prepared in a 96-well plate, a series of an equal volume of bacterial solution (50 μl) prepared in Mueller-Hinton broth (MHB) were added to the same 96-well plate, and the final bacterial inoculum size in each well of the 96-well plate was approximately 5 × 10^5 CFU/ml. As positive and negative controls, bacteria solution without peptides and blank samples without bacteria were prepared in the same 96-well plate. […] The lowest peptide concentration at which there was no increase in optical density was referred to as the MIC.

E. faecalis 29212 = assay type: cell-based, Enterococcus faecalis; conditions: 29212, 20 h
From the text: (§2) Escherichia coli ATCC25922, E. coli UB1005, Pseudomonas aeruginosa ATCC27853, Salmonella typhimurium ATCC14028, S. typhimurium C7731, Staphylococcus aureus ATCC29213, Methicillin-resistant S. aureus (MRSA) ATCC43300, S. epidermidis ATCC12228, and Enterococcus faecalis ATCC29212 were stored by the institute of animal nutrition, Northeast Agricultural University (Harbin, China). Multidrug-Resistant E. coli HP73 and E. coli HP74 were clinically isolated from swine-derived Escherichia coli and stored by the institute of animal nutrition, Northeast Agricultural University (Harbin, China).
as §1

E. coli 25922 = assay type: cell-based, Escherichia coli; conditions: 25922, 20 h
From the text: as §2, §1

E. coli UB1005 = assay type: cell-based, Escherichia coli; conditions: UB1005, 20 h
From the text: as §2, §1

S. typhimurium 14028 = assay type: cell-based, Salmonella typhimurium; conditions: 14028, 20 h
From the text: as §2, §1

S. typhimurium C7731 = assay type: cell-based, Salmonella typhimurium; conditions: C7731, 20 h
From the text: as §2, §1

HEK293T = test: MTT cytotoxicity assay; assay type: cell-based, human
Protocol: (§3) 3-(4,5-dimethylthiozol-2-yl)-2,5-diphenyltetrazolium bromide (MTT) assay and live/dead cell staining assay were conducted to assess the peptide cytotoxicity. For the MTT assay, cell lines were seeded and passaged twice in high-glucose Dulbecco’s modified Eagle’s medium (DMEM, containing 100 μg/ml streptomycin, 100 U/ml penicillin, and 10% vol/vol fetal bovine serum) or Dulbecco’s Modified Eagle Medium/Nutrient Mixture F-12 (DMEM/F-12, containing 100 μg/ml streptomycin, 100 U/ml penicillin, and 10% vol/vol fetal bovine serum) at a 5% CO2 incubator (37°C). The cells (approximately 50,000 cells per well) were cultured in a 96-well plate at a 5% CO2 incubator for 1 day. Then various concentrations of peptide solutions (50 μl) were added to the plate and incubated for another 1 day. The cells solution without peptides and blank samples without cells and peptides were prepared in the same 96-well plate as positive and negative controls, respectively. Subsequently, MTT (0.5 mg/ml, 20 μl per well) was added and the plate was incubated for another 4 h. Removed all supernatant from the plate and added 150 μl of dimethyl sulfoxide. Finally, a microplate reader (Tecan GENios F129004, Austria) was used to record the absorbance data at OD570 nm. Melittin was employed as a control peptide. The cell viability was calculated using the previously described equation ([Lai et al., 2021]).

HEK293 = test: Live/dead cell staining (calcein-AM/PI); assay type: cell-based, human; conditions: peptide concentration less than 64 μM
From the text: For live/dead cell staining assay, HEK293 cell lines, calcein-AM, and propidium iodide (PI) were employed to assess the cell viability. The processes that come next are the same as in the prior report ([Lai et al., 2021]). There were two technical replicates used in the experiment.

S. aureus 29213 = assay type: cell-based, Staphylococcus aureus; conditions: 29213, 20 h
From the text: as §2, §1

IPEC-J2 = test: MTT cytotoxicity assay; assay type: cell-based, porcine
Protocol: as §3

S. epidermidis 12228 = assay type: cell-based; conditions: 12228, 20 h
From the text: as §2, §1

P. aeruginosa 27853 = assay type: cell-based, Pseudomonas aeruginosa; conditions: 27853, 20 h
From the text: as §2, §1

MRSA 43300 = assay type: cell-based, Methicillin-resistant S. aureus; conditions: 43300, 20 h
From the text: as §2, §1

proteinase K = proteinase K (Parengyodontium album, UniProt P06873); test: Proteolytic stability, tricine-SDS-PAGE; assay type: in vitro ADME; conditions: peptide 2.56 mM + 500 μg/ml protease (equal volumes), 16.5% tricine-SDS-PAGE
Protocol: 16.5% tricine−SDS − PAGE was used to evaluate the proteolytic stability of the peptides. The peptides (2.56 mM, 50 μl) were incubated with protease (500 μg/ml, 50 μl) at 37°C. After incubating for 1, 2, 4, or 8 h, the mixture (20 μl) was drawn out and placed in a bath of boiling water for 5 min. The mixture was then diluted to the suitable concentration for 16.5% tricine-SDS-PAGE analysis.

E. coli HP74 = test: microbe, parasite or virus in culture; assay type: cell-based, Escherichia coli; conditions: HP74, 20 h; read-out: MICs, E. coli HP74
From the text: as §2, §1

E. coli HP73 = test: microbe, parasite or virus in culture; assay type: cell-based, Escherichia coli; conditions: HP73, 20 h; read-out: MICs, E. coli HP73
From the text: as §2, §1

[1] = peptide concentration less than 64 μM

proteinase K, sequence (P06873 106-384): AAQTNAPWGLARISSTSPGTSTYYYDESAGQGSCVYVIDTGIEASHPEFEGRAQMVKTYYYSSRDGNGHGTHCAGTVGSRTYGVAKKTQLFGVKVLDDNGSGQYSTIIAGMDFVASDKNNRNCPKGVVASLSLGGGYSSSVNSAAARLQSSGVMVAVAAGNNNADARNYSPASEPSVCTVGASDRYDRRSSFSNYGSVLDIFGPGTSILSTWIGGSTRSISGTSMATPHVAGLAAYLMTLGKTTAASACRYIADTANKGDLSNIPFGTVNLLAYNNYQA

CCCCCC(=O)NCCCC[C@H](NC(=O)[C@H](CC(C)C)NC(=O)[C@H](CCCCN)NC(=O)[C@H](CCCCN)NC(=O)[C@H](CC(C)C)NC(=O)[C@H](CCCCNC(=O)CCCCC)NC(=O)[C@H](CCCCN)NC(=O)[C@H](CCCCN)NC(=O)[C@H](CC(C)C)NC(=O)[C@H](CCCCN)NC(=O)[C@H](CCCCN)NC(=O)[C@H](CC(C)C)NC(=O)[C@@H](N)Cc1c[nH]c2ccccc12)C(=O)N[C@@H](CCCCN)C(=O)N[C@@H](CCCCN)C(=O)O [WL-C6] (H-WLKKLKKK(Hexanoyl)LKKLK(Hexanoyl)KK-OH)
4 µM: MICs, E. faecalis 29212 (E. faecalis 29212) | MICs, E. coli 25922 (E. coli 25922) | MICs, E. coli UB1005 (E. coli UB1005) | MICs, S. typhimurium C7731 (S. typhimurium C7731) | MICs, S. aureus 29213 (S. aureus 29213) | MICs, S. epidermidis 12228 (S. epidermidis 12228) | MICs, MRSA 43300 (MRSA 43300) | MIC (E. coli HP74) | MIC (E. coli HP73)
2 µM: MICs, S. typhimurium 14028 (S. typhimurium 14028) | MICs, P. aeruginosa 27853 (P. aeruginosa 27853)
> 1 h: Digestion period beyond which the bands gradually vanished, proteinase K (proteinase K; 37°C)
3.43 µM: GM, geometric mean MICs from the 9 bacterial strains (9 bacterial strains)
cleaved by proteinase K: Stability to proteinase K (band on gel) (proteinase K; 37°C, 1, 2, 4, 8 h)
negligible toxicity: Toxicity toward HEK293T (HEK293T; [1]) | Toxicity toward HEK293 (HEK293) | Toxicity toward IPEC-J2 (IPEC-J2; [1])

CCCCCCCC(=O)NCCCC[C@H](NC(=O)[C@H](CC(C)C)NC(=O)[C@H](CCCCN)NC(=O)[C@H](CCCCN)NC(=O)[C@H](CC(C)C)NC(=O)[C@H](CCCCNC(=O)CCCCCCC)NC(=O)[C@H](CCCCN)NC(=O)[C@H](CCCCN)NC(=O)[C@H](CC(C)C)NC(=O)[C@H](CCCCN)NC(=O)[C@H](CCCCN)NC(=O)[C@H](CC(C)C)NC(=O)[C@@H](N)Cc1c[nH]c2ccccc12)C(=O)N[C@@H](CCCCN)C(=O)N[C@@H](CCCCN)C(=O)O [WL-C8] (H-WLKKLKKK(Octanoyl)LKKLK(Octanoyl)KK-OH)
3.70 µM: GM, geometric mean MICs from the 9 bacterial strains (9 bacterial strains)
4 µM: MICs, E. faecalis 29212 (E. faecalis 29212) | MICs, E. coli 25922 (E. coli 25922) | MICs, S. typhimurium 14028 (S. typhimurium 14028) | MICs, S. typhimurium C7731 (S. typhimurium C7731) | MICs, S. aureus 29213 (S. aureus 29213) | MICs, S. epidermidis 12228 (S. epidermidis 12228) | MICs, P. aeruginosa 27853 (P. aeruginosa 27853) | MICs, MRSA 43300 (MRSA 43300) | MIC (E. coli HP74) | MIC (E. coli HP73)
2 µM: MICs, E. coli UB1005 (E. coli UB1005)
greater than 32 μM: Concentration above which significant cytotoxicity toward HEK293T (HEK293T; 1 day incubation) | Concentration above which significant cytotoxicity toward IPEC-J2 (IPEC-J2; 1 day incubation)
